Tests used:
Format in all cases: cell-based
[1] = tested on: Human MRC-5 cell line derived from normal lung tissue; assay: Cytotoxicity test, cell growth inhibition by MTS assay; conditions: MRC-5, 72 h incubation, 8 concentrations
Procedure: (§1) Human MRC-5 cell line derived from normal lung tissue and human HCT-116 colorectal carcinoma were obtained from the American Type Culture Collection (ATCC, Rockville, Md.). Primary Human Umbilical Vein Endothelial Cells (HUVEC) isolated from the vein of the umbilical cord were obtained from Promocell (Germany). Cell lines were cultured according to the supplier's instructions. Human HCT-116 cells were grown in Gibco McCoy's 5A supplemented with 10% fetal calf serum (FCS) and 1% glutamine. Human MRC-5 cells were grown in DMEM supplemented with 10% fetal calf serum (FCS) and 1% glutamine. HUVECs were grown in Endothelial Cell Growth Medium 2 which is low-serum (2% V/V) media optimized for the cultivation of endothelial cells from large blood vessels.
(§2) Cells were counted using a Vi-cell XR (Beckman Coulter) and their viability assessed by 0.25% trypan blue dye exclusion. They were tested for the presence of mycoplasma before experiments with the Mycoplasma PCR Detection Kit (Applied Biological Materials Inc., Canada) in accordance with the manufacturer instructions and only mycoplasma-free cells were used for further investigations.
(§3) Cell lines were maintained at 37° C. in a humidified atmosphere containing 5% CO2. Cell growth inhibition was determined by an MTS assay according to the manufacturer's instructions (Promega, Madison, Wis., USA). […] After 24 h of culture, the cells were treated with the compound CR777 of example 1 at 8 different final concentrations. Each concentration was obtained from serial dilutions in culture medium starting from the stock solution. Control cells were treated with the vehicle. Experiments were performed in triplicate.
(§4) After 72 h of incubation, 20 μL of CellTiter 96® AQueous One Solution Reagent was added for 2 h before recording absorbance at 490 nm with a spectrophotometric plate reader. The dose-response curves were plotted with Graph Prism software and the IC50 values were calculated using the Graph Prism software from polynomial curves (four or five-parameter logistic equations).

[2] = tested on: human HCT-116 colorectal carcinoma; assay: as above; conditions: HCT-116, 72 h incubation, 8 concentrations
Procedure: as §1, §2, §3, §4

[3] = tested on: primary rat dopaminergic neurons (TH positive neurons) injured with MPP+; assay: Neuroprotective effect following exposure to MPP+
Procedure: This study investigated the neuroprotective effect of the Compound CR777 of example 1 on rat primary mesencephalic cultures following exposure to 1-methyl-4-phenyl pyridinium (MPP^+).
Rat dopaminergic neurons were cultured as described by Visanji et al., 2008 FASEB J. 2008; 22(7):2488-97. Briefly, the midbrains obtained from 15-day old rat embryos (Janvier Labs, France) were dissected under a microscope. The embryonic midbrains were removed and placed in ice-cold medium of Leibovitz (L15, Batch 4290114, Pan Biotech, Germany) containing 2% of Penicillin-Streptomycin (PS, Batch 1451013, Pan Biotech) and 1% of bovine serum albumin (BSA, Batch K030913, Pan Biotech). The ventral portion of the mesencephalic flexure, a region of the developing brain rich in dopaminergic neurons, was used for the cell preparations.
The midbrains were dissociated by trypsinisation for 20 min at 37° C. […] The cells were seeded in supplemented neurobasal medium at a density of 40 000 cells/well in 96 well-plates pre-coated with poly-L-lysine (Batch 3102256, Corning Biocoat) and maintained in a humidified incubator at 37° C. in 5% CO2/95% air atmosphere. Half of the medium was changed every 2 days with fresh medium.
On day 6 of culture, the medium was removed and fresh medium was added, without or with MPP+ at 4 μM diluted in control medium and let for 48 h. […]
The following conditions were assessed: (6 wells per condition) • Control (vehicle) • Compound CR777 of example 1 (1 pmol/L) • Compound CR777 of example 1 (10 pmol/L) • Compound CR777 of example 1 (100 pmol/L) • Compound CR777 of example 1 (1 nmol/L) • Compound CR777 of example 1 (10 nmol/L) • Compound CR777 of example 1 (100 nmol/L) • Compound CR777 of example 1 (1 μmol/L) • Compound CR777 of example 1 (10 μmol/L) […]
Data were expressed in percentage of control conditions (no injury, no compound=100%). All values were expressed as mean+/−SEM (standard error mean) of the 6 wells with statistical analyses on the different conditions (ANOVA followed by Dunnett's test when allowed, using GraphPad Prism software).

Compound: CC1=C(CO)C(=O)O[C@@H]([C@@H](C)[C@H]2CCC3C4C[C@H](SC[C@H](NC(=O)CC[C@@H](N)C(=O)O)C(=O)NCC(=O)O)[C@]5(O)[C@@H](O)C=CC(=O)[C@]5(C)C4CC[C@@]32C)C1 (stereo partly shown) [CR777]
- toxicity (cell growth inhibition, MTS) [1]: does not show any toxicity
- toxicity (cell growth inhibition, MTS) [2]: does not show any toxicity
- TH positive neuron survival ([3]; added 1 h before MPP+ (4 μM, 48 h), all concentrations 1 pmol/L to 10 μmol/L, more particularly 10 to 100 nmol/L): significantly protected neurons from death
- neuro-protective effect on MPP+ induced injuries ([3]; concentrations between 10 and 100 nmol/L, MPP+ 4 μM, 48 h): important and significantly neuro-protective effect
